We go through nine molecules from publication PMC8506144 (Phytochemistry, 2021).

For test [1], the target named is T1, SARS-CoV-2 PLpro (Severe acute respiratory syndrome coronavirus 2, UniProt P0DTD1). Briefly: biochemical. The class given is biochemical.
Test [2] deals with T1, SARS-CoV-2 PLpro. As to the kind of experiment: Pro-ISG15 cleavage assay. The class given is biochemical. Conditions: for inhibition at 20 µM / inhibition at 10 µM: read-out: Inhibition rate of PLpro-mediated deISGylation; for Inhibition rate of PLpro-mediated deISGylation: 20 μM compound, 50 nM PLpro, 350 nM pro-ISG15, 10 min, 37 °C.
The mark [3] stands for this setting: IC50 (50% inhibition of PLpro anti-proteolytic activity), 50 nM PLpro, 50 μM Z-RLRGG-AMC, 10 mM DTT, pH 8.0, 37 °C, mean ± SD.

Structures are written as SMILES. Like-named read-outs stand apart in the source and are kept apart here.

A word on the IC50: it is the midpoint of a concentration-inhibition curve. For the molecule `COc1ccc(-c2cc(=O)c3c(O)cc(O)cc3o2)cc1` [Acacetin, acacetin, reference compound], the half-maximal inhibitory concentration (IC50) in test [1] (setting [3]) worked out at 91.2 ± 11.3 µM.

On to `O=c1cc(-c2ccc(O)cc2)oc2cc(O)cc(O)c12` [Apigenin, apigenin, reference compound], for which, in test [1] (setting [3]), the half-maximal inhibitory concentration (IC50) worked out at 75.7 ± 6.4 µM.

Broadly, the Ki is a measure of affinity in units of concentration, obtained from inhibition or displacement. A low value points to a stronger hold on the target. The term inhibition denotes the change of the read-out against control, counted positive when it falls. `O=c1cc(-c2ccc(O)c(-c3c(O)cc(O)c4c(=O)cc(-c5ccc(O)cc5)oc34)c2)oc2cc(O)cc(O)c12` [Compound 1, amentoflavone]: the inhibition constant Ki in test [1] worked out at 9.1 ± 0.7 µM. In test [1] (setting [3]), this molecule gave an IC50 of 13 ± 1.2 µM. Also, the inhibition at 20 µM in test [2] was determined as 48.1%.

In test [1], `COc1ccc(-c2cc(=O)c3c(O)cc(O)c(-c4cc(-c5cc(=O)c6c(O)cc(O)cc6o5)ccc4O)c3o2)cc1` [Compound 2, podocarpusflavone A] showed an inhibitory constant (Ki) of 36.5 ± 4.2 µM. Moreover, half-maximal inhibition in test [1] (setting [3]) (IC50) required 43.2 ± 2.9 µM. For the same molecule, in test [2], the inhibition at 10 µM lay within 53.2 to 71.1% and the inhibition at 20 µM is 64.9 to 74.8%.

Regarding `COc1cc(O)c2c(=O)cc(-c3ccc(OC)c(-c4c(O)cc(O)c5c(=O)cc(-c6ccc(O)cc6)oc45)c3)oc2c1` [Compound 3, ginkgetin], the Ki in test [1] worked out at 17.7 ± 1.1 µM. The molecule further had an IC50 in test [1] (setting [3]) of 29.8 ± 1.5 µM. In test [2], the “Inhibition rate of PLpro-mediated deISGylation” value (shortened to “Inhibition rate”) is given as “near complete inhibition” and the inhibition at 10 µM was 53.2 to 71.1%.

In turn, `COc1ccc(-c2cc(=O)c3c(O)cc(O)c(-c4cc(-c5cc(=O)c6c(O)cc(O)cc6o5)ccc4OC)c3o2)cc1` [Compound 4, isoginkgetin] returned a Ki in test [1] of 26.5 ± 2.8 µM. Moreover, it took 31.2 ± 3.4 µM to reach half-maximal inhibition in test [1] (setting [3]) (IC50). Also, in test [2], the “Inhibition rate” value is on record as “near complete inhibition” and the inhibition at 10 µM lay in the range of 53.2 to 71.1%.

`O=C1c2c(O)cc(O)cc2O[C@H](c2ccc(O)cc2)[C@H]1c1c(O)cc(O)c2c(=O)cc(-c3ccc(O)c(O)c3)oc12` [Compound 6, morelloflavone]: in test [1], the “Inhibition mode (Dixon plot)” value is listed as “non-competitive inhibition” and the affinity corresponds to a Ki of 30.7 ± 2.9 µM. For the same molecule, half-maximal inhibition in test [1] (setting [3]) (IC50) required 36.4 ± 4.8 µM. The inhibition at 20 µM in test [2] fell in the range of 32.3 to 34.1%.

For the molecule `O=c1cc(-c2ccc(Oc3c(O)cc4oc(-c5ccc(O)cc5)cc(=O)c4c3O)cc2)oc2cc(O)cc(O)c12` [Compound 7, hinokiflavone], in test [1], the Ki came out at 7.8 ± 0.5 µM. This molecule displayed an IC50 in test [1] (setting [3]) of 9.5 ± 1.2 µM. For the same molecule, the “Fold more potent anti-proteolytic activity than di-methylated counterpart 8” value in test [1] (ratio of IC50 values, 7 vs 8) was determined as 2.8 fold. For the same molecule, in test [2], the “Inhibition rate” value is “near complete inhibition” and the inhibition at 10 µM was 65.6 to 98%.

For `CC(C)=CCc1cc2c(cc1O)oc(=O)c1c3ccc(O)cc3oc21` [Psoralidin, reference compound], the 50% inhibitory concentration (IC50) in test [1] (read-out: IC50 (50% inhibition of PLpro anti-proteolytic activity), pH 8) worked out at 27.8 ± 2.2 µM.
